The assay has as its system HCV replicon cells Huh 9B. Nature of the assay: HCV replicon assay (luciferase) in Huh 9B replicon cells. The class given is cell-based. To be noted: Hepatitis C virus; concentration reducing replicon level (luciferase activity) by 50% vs untreated cell control; 72 h incubation. The method, then:
HCV replicon cells Huh 9B (ReBlikon), containing the firefly luciferase—ubiquitin—neomycin phosphotransferase fusion protein and EMCV-IRES driven HCV polyprotein with cell culture adaptive mutations.
Cells were cultured at 37° C. in a 5% CO2 environment and split twice a week on seeding at 2×10E6 cells/flask on day 1 and 1×10E6 3 days later. Some 0.25 mg/ml G418 was added to the culture medium (125 ul per 25 ml) but not the assay medium.
The culture medium consisted of DMEM with […] glucose and glutamax (Gibco 61965-026) supplemented with 1× non-essential amino acids, penicillin (100 IU/ml)/streptomycin (100 μg/ml), FCS (10%, 50 ml) and 1 mg/ml G418 (Invitrogen cat no 10131-027) & 10% foetal calf serum.
A flask of cells was trypsinised and a cell count carried out. Cells were diluted to 100,000 cells/ml and 100 μl of this used to seed one opaque white 96-well plate (for the replicon assay) and one flat-bottomed clear plate (for the tox assay) for every seven compounds to be tested for IC50. Wells G12 and H12 were left empty in the clear plate as the blank. Plates were then incubated at 37° C. in a 5% CO2 environment for 24 h.
On the following day compound dilutions are made up in medium at twice their desired final concentration in a clear round bottomed plate. All dilutions have a final DMSO concentration of 1%.
Once the dilution plate had been made up, controls and compounds were transferred to the assay plate (containing the cells) at 100 μl/well in duplicate plates.
Exception: in the white (replicon) plate, no compound was added to wells A1 and A2 and 100 μl of 1% DMSO was added to these instead. In the clear (Tox) plate, wells E12 & F12 only contained the DMSO control. Plates were then incubated at 37° C. with 5% CO2 for 72 h.
At the end of the incubation time, the cells in the white plate were harvested by washing with 200 μl/well of warm (37° C.) PBS and lysed with 20 μl cell culture lysis buffer (Promega). After 5 min incubation @ RT, luciferin solution was added to the luciferase assay buffer (LARB at 200 μl per 10 ml LARB. The M injector of the microplate luminometer (Lmax, Molecular Devices) was primed with […] injections. Plate were inserted into the luminometer and 100 μl luciferase assay reagent was added by the injector on the luminometer. The signal was measured using a 1 second delay followed by a 4 second measurement programme. The IC50, the concentration of the drug required for reducing the replicon level by 50% in relation to the untreated cell control value, can be calculated from the plot of the percentage reduction of the luciferase activity vs. drug concentration.

Some results are limits rather than exact numbers.

A word on the IC50: it is the point on the concentration scale where inhibition reaches its midpoint. Read a high IC50 as lower potency. On to `c1nc(Nc2ccc(N3CCOCC3)cc2)c2cc(-c3ccc(CN4CCOCC4)o3)ccc2n1` [Example 12, [6-(5-Morpholin-4-ylmethyl-furan-2-yl)-quinazolin-4-yl]-(4-morpholin-4-yl-phenyl)-amine], for which the IC50 was under 1 µM.
To `c1ccc(COc2ccc(-c3ccc4ncnc(Nc5ccc(N6CCOCC6)cc5)c4c3)cc2)cc1` [Example 51, [6-(4-Benzyloxy-phenyl)-quinazolin-4-yl]-(4-morpholin-4-yl-phenyl)-amine] belongs under 5 µM.
To `COc1ccc(CNC(=O)c2ccc3ncnc(Nc4ccc(N5CCOCC5)cc4)c3c2)cc1` [Example 26, 4-(4-Morpholin-4-yl-phenylamino)-quinazoline-6-carboxylic acid 4-methoxy-benzylamide] belongs under 5 µM; to `O=C(Nc1ccc2ncnc(Nc3ccc(N4CCOCC4)cc3)c2c1)c1ccco1` [Example 25, Furan-2-carboxylic acid [4-(4-morpholin-4-yl-phenylamino)-quinazolin-6-yl]-amide], under 25 µM; to `CC(=O)Nc1ccc(-c2ccc3ncnc(Nc4ccc(N5CCOCC5)cc4)c3c2)cc1` [Example 35, N-{4-[4-(4-Morpholin 4-yl-phenylamino)-quinazolin-6-yl]-phenyl}-acetamide], under 1 µM.
On to `CC(C)CCN(c1ccc(N2CCOCC2)cc1)c1ncnc2ccc(-c3cccs3)cc12` [Example 49, (3-Methyl-butyl)-(4-morpholin-4-yl-phenyl)-(6-thiophen-2-yl-quinazolin-4-yl)-amine], for which the IC50 was under 5 µM.
As for `CS(=O)(=O)CCNCc1ccc(-c2ccc3ncnc(Nc4ccc(N5CCOCC5)cc4)c3c2)o1` [Example 9, (6-{5-[(2-Methanesulfonyl-ethylamino)-methyl]-furan-2-yl}-quinazolin-4-yl)-(4-morpholin-4-yl-phenyl)-amine], the figure is under 1 µM; as for `OCc1ccc(-c2ccc3ncnc(Nc4ccc(N5CCOCC5)cc4)c3c2)o1` [Example 8, {5-[4-(4-morpholin-4-yl-phenylamino)-quinazolin-6-yl]-furan-2-yl}-methanol], under 1 µM; as for `CS(=O)(=O)Nc1cccc(-c2ccc3ncnc(Nc4ccc(N5CCOCC5)cc4)c3c2)c1` [Example 38, N-{3-[4-(4-Morpholin-4-yl-phenylamino)-quinazolin-6-yl]-phenyl}-methanesulfonamide], under 5 µM.
Molecule `Cc1cc(N2CCOCC2)ccc1Nc1ncnc2ccc(-c3cccs3)cc12` [Example 43, (2-Methyl-4-morpholin-4-yl-phenyl)-(6-thiophen-2-yl-quinazolin-4-yl)-amine] registered a half-maximal inhibitory concentration (IC50) of under 1 µM.
`Brc1ccc2ncnc(Nc3ccc(N4CCOCC4)cc3)c2c1` [Example 1, (6-Bromo-quinazolin-4-yl)-(4-morpholin-4-yl-phenyl)-amine] returned a concentration for half-maximal inhibition (IC50) of under 5 µM.
As for `CNC(=O)c1ccc2ncnc(Nc3ccc(N4CCOCC4)cc3)c2c1` [Example 30, 4-(4-Morpholin-4-yl-phenylamino)-quinazoline-6-carboxylic acid methylamide], the figure is under 5 µM; as for `COc1cc(Nc2ncnc3ccc(I)cc23)ccc1N1CCOCC1` [Example 41, (6-Iodo-quinazolin-4-yl)-(3-methoxy-4-morpholin-4-yl-phenyl)-amine], under 5 µM; as for `CN(c1ccc(N2CCOCC2)cc1)c1ncnc2ccc(I)cc12` [Example 46, (6-Iodo-quinazolin-4-yl)-methyl-(4-morpholin-4-yl-phenyl)amine], under 1 µM.
`c1coc(-c2ccc3ncnc(Nc4ccc(N5CCOCC5)cc4)c3c2)c1` [Example 5, (6-Furan-2-yl-quinazolin-4-yl)-(4-morpholin-4-yl-phenyl)-amine] showed an IC50 of under 1 µM.
To `Cc1ccc(CNC(=O)c2ccc3ncnc(Nc4ccc(N5CCOCC5)cc4)c3c2)cc1` [Example 29, 4-(4-Morpholin-4-yl-phenylamino)-quinazoline-6-carboxylic acid 4-methyl-benzylamide] belongs under 5 µM.

For the origin of these results see patent US20080311076A1, “Morpholinylanilinoquinazoline Derivatives For Use As Antiviral Agents” (ARROW THERAPEUTICS LIMITED, priority 2004, published 2008).
